The source of these data is patent US20210255193A1, “LYSINE REACTIVE PROBES AND USES THEREOF” (The Scripps Research Institute, priority 2017, published 2021).

What all share (test): Co-IP experiment, anti-Myc western blot
What all share (type): binding
On the technique in general: Immunoblotting shows a protein as a band on a membrane.

Test [1] concerns the target T1, interaction between SIN3A and TGIF1 (Homo sapiens, UniProt Q96ST3, K155R).
T1 construct: flag-SIN3A or the indicated Flag-SIN3A mutants (a.a. 1-400), or Flag-GFP, were co-expressed in HEK 293T cells with Myc-TGIF1 or Myc-TGIF2; expressed in transfected cells; host or cells: HEK 293T
As to conditions: K155R SIN3A. The procedure: (§1) Co-IP experiment for the interaction between SIN3A and TGIF1 and TGIF2. 6 cm dishes of HEK 293T cells were transfected at 40% confluency with 600 ng of FLAG-GFP, FLAG-SIN3A WT, K155W, or K155R construct, and 600 ng of MYC-TGIF1 or MYC-TGIF2 as indicated. After 48 hours, cells were lysed and enriched as described above. Following elution in 40 μL urea, 15 μL of loading buffer was added to samples. 15 μL of both input (10%) and outputs were loaded onto an SDS-PAGE gel.
(§2) Western blotting. Proteins were resolved by SDS-PAGE (3 h, 300 V) and transferred to nitrocellulose membranes (90 min, 60 V), blocked with 5% milk in TBS-T and probed with the indicated antibodies in 5% milk in TBS-T. The primary antibodies and the dilutions used are as follows: anti-Flag (Sigma Aldrich, F1804, 1:3,000), anti-Myc (Cell Signalling, 2272S, 1:5,000), anti-actin (Cell Signaling, 3700, 1:3,000) and anti-GAPDH (Santa Cruz, 32233, 1:10,000). Blots were incubated with primary antibodies overnight at 4° C. with rocking and were then washed (3×5 min, TBS-T) and incubated with secondary antibodies (LICOR, IRDye 800CW or IRDye 680LT, 1:10,000) for 1 h at ambient temperature. Blots were further washed (3×5 min, TBST) and visualized on a LICOR Odyssey Scanner. Relative band intensities were quantified using ImageJ software.

For test [2], the target named is T2, interaction between SIN3A and TGIF1 (Homo sapiens, UniProt Q96ST3).
T2 construct: flag-SIN3A or the indicated Flag-SIN3A mutants (a.a. 1-400), or Flag-GFP, were co-expressed in HEK 293T cells with Myc-TGIF1 or Myc-TGIF2; expressed in transfected cells; host or cells: HEK 293T
T2 sequence (Q96ST3 1-400): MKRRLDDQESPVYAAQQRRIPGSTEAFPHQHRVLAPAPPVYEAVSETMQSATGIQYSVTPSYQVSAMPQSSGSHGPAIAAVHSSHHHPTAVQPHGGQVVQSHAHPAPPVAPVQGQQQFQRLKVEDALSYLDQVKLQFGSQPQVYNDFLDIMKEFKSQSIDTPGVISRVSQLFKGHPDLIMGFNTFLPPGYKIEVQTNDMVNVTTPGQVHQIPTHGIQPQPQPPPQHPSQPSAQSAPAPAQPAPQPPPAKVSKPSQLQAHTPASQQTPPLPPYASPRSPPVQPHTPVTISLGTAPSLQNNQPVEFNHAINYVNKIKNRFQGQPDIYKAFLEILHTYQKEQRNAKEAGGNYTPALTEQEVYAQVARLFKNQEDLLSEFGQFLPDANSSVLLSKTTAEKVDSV
As to conditions: anti-Myc blotting. How it is done:
as §1, §2

In test [3] the target is T3, interaction between SIN3A and TGIF2 (Homo sapiens, UniProt Q96ST3).
T3 construct: flag-SIN3A or the indicated Flag-SIN3A mutants (a.a. 1-400), or Flag-GFP, were co-expressed in HEK 293T with Myc-TGIF2; expressed in transfected cells; host or cells: HEK 293T
T3 sequence (Q96ST3 1-400): as above
As to conditions: anti-Myc blotting. How it is done: as §1, §2

T1 sequence (Q96ST3 1-400 K155R): as the sequence (Q96ST3 1-400) above, with K155R counted along it

Consider `O=C(Oc1c(F)c(F)c(F)c(F)c1F)c1cc(C(F)(F)F)cc(C(F)(F)F)c1` [fragment 21, Pentafluorophenyl 3,5-bis(trifluoromethyl)benzoate], for which the “effect on SIN3A-TGIF1 interaction, K155R mutant” value in test [1] is reported as “conferred resistance to the effects of 21”. Besides, the “co-immunoprecipitation of TGIF1 with SIN3A” value in test [2] is recorded as “blocked the co-immunoprecipitation of TGIF1”. The “co-immunoprecipitation of TGIF2 with SIN3A” value in test [3] is reported as “partial blockade”.
